The values below come from patent publication US8044094B2, “Agents for preventing and treating disorders connected to impaired neurotransmission” (DSM IP Assets B.V., priority 2004, dated 2011).

For experiment [1], the target named is T1, MAO-B (Homo sapiens, UniProt P27338).
T1 construct: purchased Sigma M7441
T1 sequence (P27338 1-520): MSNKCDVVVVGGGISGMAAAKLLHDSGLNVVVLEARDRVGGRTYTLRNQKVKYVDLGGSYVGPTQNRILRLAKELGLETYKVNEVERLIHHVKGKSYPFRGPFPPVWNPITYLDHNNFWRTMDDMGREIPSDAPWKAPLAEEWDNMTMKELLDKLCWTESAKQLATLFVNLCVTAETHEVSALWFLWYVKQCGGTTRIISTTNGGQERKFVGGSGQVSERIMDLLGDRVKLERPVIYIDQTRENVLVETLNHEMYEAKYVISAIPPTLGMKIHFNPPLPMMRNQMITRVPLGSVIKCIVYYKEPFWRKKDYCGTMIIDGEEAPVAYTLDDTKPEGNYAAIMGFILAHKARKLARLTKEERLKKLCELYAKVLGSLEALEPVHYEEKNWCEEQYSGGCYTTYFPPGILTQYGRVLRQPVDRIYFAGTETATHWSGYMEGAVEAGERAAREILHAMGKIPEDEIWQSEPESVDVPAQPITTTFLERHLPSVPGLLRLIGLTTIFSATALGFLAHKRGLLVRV
As to the kind of experiment: MAO-B inhibition, Amplex Red Monoamine Oxidase Assay Kit, colorimetric. Format: biochemical. Here is the method:
From a stock solution of 0.0405 g of racemic obliquin (92.5%; equal to 37.5 mg of pure compound) in 750 μl of dimethylsulfoxide (DMSO), working solutions were prepared with a concentration of obliquin of 4. 10^−4M in reaction buffer (0.05 M sodium phosphate, pH 7.4, 0.2% DMSO). The final concentrations of obliquin in the test system were 10^−4 M, 10^−5 M, 10^−6 M, 10^−7 M.
For determining the inhibition of monoaminoxidases' activity, the Amplex Red Monoamine Oxidase Assay Kit (Molecular Probes Nr._A-12214, Colorimetric version) was conducted according to manufacturers instructions.
As substrates for MAO-A enzyme (Sigma Nr. M7316) p-tyramine and as substrate for MAO-B enzyme (Sigma Nr. M7441) benzylamine were used. The concentration of MAO-A enzyme was 8 Units/ml, and that of MAO-B 4 Units/ml in the working solution.
MAO-A and MAO-B Assay, Colorimetric Version:
For the assay, 50 μl of each working solution (see above) were used. As control solution, the obliquin containing working solution was replaced by 50 μl of the reaction buffer.
50 μl of diluted MAO-A with a final concentration of 2 Units/ml and 50 μl of diluted MAO-B with a final concentration of 1 Unit/ml, respectively, were added.
100 μl of the Amplex solution containing horseradish peroxidase (2 U/ml) and the substrate tyramine (for MAO-A) or the substrate benzylamine (for MAO-B) were added.
To allow a subtraction of the background absorption a mixture of 100 μl of the Amplex solution and 100 μl of the reaction buffer was measured as a “blank”.
The samples were incubated at room temperature in the dark for 1 hour, and then the extinction at 535 nm determined in a Softmax Microplate photometer (Molecular Device).

Experiment [2] concerns the target T2, human serotonin re-uptake transporter (hSERT) (Homo sapiens, UniProt P31645). The experiment can be described thus: Serotonin uptake inhibition in HEK-293 cells stably expressing hSERT. Format: cell-based. As to conditions: transfected HEK-293 cells; Ki from IC50 by Cheng-Prusoff; 20 nM (3H) serotonin; read-out: Inhibition constant Ki for tritiated serotonin uptake. Here is the method: HEK-293 cells stably expressing the human serotonin re-uptake transporter (hSERT) were obtained from R. Blakely, Vanderbilt University, USA. The cells were routinely grown in Dulbeco's Modified Eagles Medium, purchased from Bioconcept, Allschwil, Switzerland containing 10% fetal calf serum, penicillin, streptomycin, L-glutamine and the antibiotic G418 and passaged by trypsinisation. 1 day prior to the assay cells were seeded in the above mentioned medium. Immediately prior to the assay the medium was replaced by Krebs Ringers bicarbonate buffer, purchased from Sigma Chemicals Ltd., supplemented with 35 μM pargyline, 2.2 mM CaCl2, 1 mM ascorbic acid and 5 mM N-2-hydroxyethylpiperazine-N′-2-ethanesulfonic acid (buffer called “Hepes”). Serotonin uptake into the cells was determined by addition of radio-labeled (3H) serotonin (Amersham Biosciences GE Healthcare, Slough, UK) to a concentration of 20 nM, and incubation for 30 minutes at room temperature. Following removal of unincorporated label by gentle washing three times with the above buffer, incorporated serotonin was quantified by liquid scintillation counting.
(§1) The effect of the coumarin ethers of formula I on the serotonin uptake and the citalopram binding was determined by its inclusion in the assay at a range of concentrations between 0.03 and 100 μM for 10 minutes prior to and during the addition of (3H) serotonin/citalopram. Serotonin uptake via the transporter and citalopram binding were both inhibited by the coumarin ethers of formula I in a dose dependent manner. The calculated inhibition constants Ki, derived from the measured IC50 using the Cheng—Prusoff equation (Y. C. Cheng, W. H. Prusoff, Biochem. Pharmacol. 1973, 22, p. 3099-3108), for inhibition of serotonin uptake and citalopram binding by coumarin ethers of the formula I are shown in Table 1.

Experiment [3] has as its target T2, human serotonin re-uptake transporter (hSERT). The experiment can be described thus: Labeled citalopram displacement from hSERT containing membranes (SPA). Type of experiment: binding. As to conditions: hSERT containing membranes; Ki from IC50 by Cheng-Prusoff; 3.3 nM (3H) citalopram; read-out: Inhibition constant Ki for tritiated citalopram displacement. Here is the method:
Membranes containing hSERT were prepared from the above cell line according to Galli et al, Journal of Experimental Biology 1995, 198, 2197-2212. 3 μg of membrane protein and 0.8 mg of wheat germ aglutinin coated SPA® (scintillation proximity assay) beads (Amersham Biosciences GE Healthcare, Slough, UK) per data point were mixed with radio-labeled (3H) citalopram (Amersham Biosciences GE Healthcare, Slough, UK) until a final concentration of 3.3 nM in 50 mM Tris-HCl, 300 mM NaCl (pH 7.4). After incubation for 18 hours at room temperature, the bound citalopram was quantified by liquid scintillation counting.
as §1

T2 sequence (P31645 whole entry): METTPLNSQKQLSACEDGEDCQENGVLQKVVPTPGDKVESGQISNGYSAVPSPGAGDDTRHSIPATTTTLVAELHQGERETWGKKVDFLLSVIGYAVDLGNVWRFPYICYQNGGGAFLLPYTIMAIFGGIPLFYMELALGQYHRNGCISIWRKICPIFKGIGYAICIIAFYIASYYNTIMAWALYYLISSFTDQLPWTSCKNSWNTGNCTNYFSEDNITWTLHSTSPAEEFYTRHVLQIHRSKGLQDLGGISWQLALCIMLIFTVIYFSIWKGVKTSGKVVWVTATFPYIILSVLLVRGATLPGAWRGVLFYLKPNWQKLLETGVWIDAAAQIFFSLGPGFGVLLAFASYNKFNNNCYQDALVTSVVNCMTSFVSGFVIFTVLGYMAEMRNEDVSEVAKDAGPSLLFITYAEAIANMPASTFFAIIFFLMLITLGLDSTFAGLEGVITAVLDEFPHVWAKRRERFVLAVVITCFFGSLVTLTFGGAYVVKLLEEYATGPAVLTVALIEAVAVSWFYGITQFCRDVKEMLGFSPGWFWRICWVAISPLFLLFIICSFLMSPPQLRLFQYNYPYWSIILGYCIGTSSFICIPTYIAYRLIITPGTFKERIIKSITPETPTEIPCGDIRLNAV

In the case of `C=C(C)[C@H]1COc2cc3oc(=O)ccc3cc2O1` (racemic) [Obliquin, obliquin], the “MAO inhibition specificity MAO-B versus MAO-A” value in experiment [1] (compared with MAO-A) is recorded as “higher specificity for MAO-B than for MAO-A”. 0.1 µM produced 8.3% inhibition in experiment [1] (obliquin 1 x 10^−7 M, substrate benzylamine). The compound also gave an inhibition at 1 µM in experiment [1] (obliquin 10 x 10^−7 M, substrate benzylamine) of 33.3%. The same compound came in with an inhibition at 10 µM in experiment [1] (obliquin 100 x 10^−7 M, substrate benzylamine) of 76.9%. The compound further gave an inhibition at 100 µM in experiment [1] (obliquin 1000 x 10^−7 M, substrate benzylamine) of 91.5%. Further, the Ki in experiment [2] came to 4.9 µM; in experiment [3] it was 6.1 µM.
